The record followed here is US5037739A, “N-acetylmannosamine dehydrogenase, process for its production, method for quantitatively analyzing N-acetylmannosamine or sialic acid, and kit for the quantitative analysis” (Noda Institute for Scientific Research, priority 1986, dated 1991).

In series [1] the target is T1, N-AMDH (Flavobacterium sp., UniProt P22441).
T1 construct: N-AMDH was accumulated in the bacterial cells; endogenous in cells; host or cells: Flavobacterium sp; No. 141-8 (natural producer isolated from soil); enzyme purified from the disrupted bacterial cells
T1 sequence (P22441 2-271 limits assumed): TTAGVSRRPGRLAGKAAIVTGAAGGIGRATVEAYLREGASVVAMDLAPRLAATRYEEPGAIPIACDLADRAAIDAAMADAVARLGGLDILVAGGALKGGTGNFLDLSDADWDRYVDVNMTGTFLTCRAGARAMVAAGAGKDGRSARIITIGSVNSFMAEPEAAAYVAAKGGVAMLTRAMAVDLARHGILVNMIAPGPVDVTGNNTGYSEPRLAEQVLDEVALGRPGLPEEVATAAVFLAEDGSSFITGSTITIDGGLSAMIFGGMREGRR
Description: N-AMDH enzymatic activity in solutions containing metallic ions and inhibitors. It counts as biochemical, Flavobacterium sp. No. 141-8. Conditions: for remaining activity at 2000 µM: read-out: Residual activity (%). The protocol: The table presented above illustrates the enzymatic activity of N-AMDH measured in solutions containing various metallic ions and inhibitors at a concentration of 2 mM. There is known no substance making a particular contribution to its activation and stabilization.
(§1) To 1.8 ml of 0.05M tris-hydrochloric acid buffer (pH 8.2) is added 0.1 ml of 60 mM NAD solution. After keeping the mixture at 37° C. for 10 minutes, 10 microliters of enzyme solution is added, and then 0.1 ml of 0.3M N-AM is added. By homogenizing the mixture, the reaction is started. The reaction mixture is immediately transferred into a light absorbance measurement cell (light path 1 cm) kept at 37° C., and absorbance is measured over a period of 5 minutes (if necessary, over a longer period of time) at intervals of one minute at a wavelength of 340 nm. A quantity of enzyme capable of forming 1 micromole of NADH in one minute is taken as one unit.

Series [2] deals with T1, N-AMDH. As to the kind of experiment: Action and substrate-specificity of N-AMDH (substrates and electron acceptors). In kind it is biochemical, Flavobacterium sp. No. 141-8. As to conditions: for Action of N-AMDH upon the sugar as substrate: in the presence of NAD. The protocol: In the presence of water, N-acetylmannosaminolactone is spontaneously hydrolyzed to form N-acetylmannosaminic acid. Accordingly, the reaction is substantially irreversible.
as §1

Series [3] deals with Flavobacterium sp. No. 141-8. Description: Growth resistance of the producing strain (penicillin, sodium chloride). In kind it is cell-based. The source says:
(1) Penicillin resistance: Growth even at 100 units/ml.
(2) Sodium chloride resistance: No growth above 2%.

A short description of series [4]: pH stability and heat stability (inactivation conditions) of N-AMDH. It counts as physicochemical, Flavobacterium sp. No. 141-8. The protocol: The buffer solutions used there are potassium phosphate buffer, tris-hydrochloric acid buffer and glycine-sodium hydroxide buffer.
At temperatures exceeding 45° C., it rapidly loses its activity. When heat treated at 45° C. for 10 minutes, it is stable at a pH of 8.5-9.5, while it is particularly instable at a pH value of 7 or below.

Series [5] in a line: Acrylamide gel isoelectric focusing of N-AMDH. It counts as physicochemical, Flavobacterium sp. No. 141-8. The source says: As measured by acrylamide gel isoelectric focusing, its isoelectric point is 4.9.
[6] abbreviates: N-AMDH activity with metallic ion or inhibitor at 2 mM, None = 100.
[7] abbreviates: heat treated at 45° C. for 10 minutes.

Read-outs that look alike come from different tables or passages of the source.

Regarding `Oc1cccc2cccnc12` [8-Hydroxyquinoline], the “Residual activity (%)” value in series [1] stood at 95%. For `O=S(=O)([O-])[O-].[Cu+2]` [CuSO4], the “Residual activity (%)” value in series [1] (setting [6]) is 79%. Take `O=S(=O)([O-])[O-].[Ni+2]` [NiSO4]: the “Residual activity (%)” value in series [1] (setting [6]) stood at 69%. `O=C(O)CN(CCN(CC(=O)O)CC(=O)O)CC(=O)O` [EDTA]: the remaining activity at 2000 µM in series [1] was determined as 89%. `O=S(=O)([O-])[O-].[Zn+2]` [ZnSO4]: the “Residual activity (%)” value in series [1] (setting [6]) is listed as 71%.

Take `[Cl][Hg][Cl]` [HgCl2]: the “Residual activity (%)” value in series [1] (setting [6]) is reported as 6%. As to `c1ccc(-c2ccccn2)nc1` [α,α'-Dipyridyl], the remaining activity at 2000 µM in series [1] (setting [6]) came to 97%. For the compound `NC(=O)c1ccc[n+]([C@@H]2O[C@H](COP(=O)([O-])OP(=O)(O)OC[C@H]3O[C@@H](n4cnc5c(N)ncnc54)[C@H](OP(=O)(O)O)[C@@H]3O)[C@@H](O)[C@H]2O)c1` [NADP, nicotinamide adenine dinucleotide phosphate], the “Utilization as electron acceptor by N-AMDH” value in series [2] was “hardly utilizes”. As to `c1cnc2c(c1)ccc1cccnc12` [o-Phenanthroline], the remaining activity at 2000 µM in series [1] (setting [6]) was 87%.

For the compound `NC(=O)CI` [Iodoacetamide], the remaining activity at 2000 µM in series [1] (setting [6]) came to 87%. On to `[N-]=[N+]=[N-].[Na+]` [NaN3], for which the “Residual activity (%)” value in series [1] (setting [6]) is 83%. Regarding `O=C1C(Cl)=CC(=Nc2ccc(O)cc2)C=C1Cl` [2,6-dichlorophenol indophenol], the “Utilization as electron acceptor by N-AMDH” value in series [2] is “hardly utilizes”.

Regarding `CC(=O)N[C@H]1C(O)O[C@H](CO)[C@H](O)[C@@H]1O` (stereo partly shown) [N-acetylgalactosamine], the “Action of N-AMDH upon the sugar as substrate” value (“Action” below) in series [2] was “hardly acts or does not act at all”.

Turning to `Nc1ncnc2c1ncn2[C@@H]1O[C@H](COP(=O)(O)O)[C@@H](O)[C@H]1O` [5'-AMP], the remaining activity at 2000 µM in series [1] (setting [6]) came out at 76%. On to `[Cl-].[Na+]` [Sodium chloride], for which the “Sodium chloride resistance: concentration above which there is no growth” value in series [3] is listed as “above 2%”. For the compound `CCCCCCCCCCCCOS(=O)(=O)O` [SDS], the remaining activity at 2000 µM in series [1] (setting [6]) was determined as 18%.

Turning to `O=C(O)c1cc[c]([Hg][Cl])cc1` [PCMB], the “Residual activity (%)” value in series [1] (setting [6]) was 95%.

In the case of `CC(=O)N[C@@H]1C(O)O[C@H](CO)[C@@H](O)[C@@H]1O` (stereo partly shown) [N-AM, N-acetylmannosamine], the “Action” value in series [2] was “oxidizes N-AM into N-acetylmannoaminolactone”. Turning to `CC1(C)S[C@@H]2[C@H](NC(=O)Cc3ccccc3)C(=O)N2[C@H]1C(=O)O` [Penicillin], the “Penicillin resistance: concentration at which the strain still grows” value in series [3] was ≥ 100 units/ml.

As to “N-acetylmannosamine dehydrogenase [N-AMDH]”, in series [4] (FIG. 4, heat treated for minutes), the “Temperature up to which activity is kept stable on heat treatment” value is ≤ 45 °C. For the same compound, in series [4] (setting [7]), the “pH at which it is particularly instable when heat treated” value is listed as ≤ 7 and the “pH at which it is stable when heat treated” value is listed as 8.5-9.5. The compound also showed an Isoelectric point in series [5] of 4.9.

As to `O=C(CO)N[C@@H]1C(O)O[C@H](CO)[C@@H](O)[C@@H]1O` (stereo partly shown) [N-glycolylmannosamine], the “Action” value in series [2] is “acts upon N-glycolylmannosamine in the same manner as above”. `CC(=O)N[C@H]1C(O)O[C@H](CO)[C@@H](O)[C@@H]1O` (stereo partly shown) [N-acetylglucosamine]: the “Action” value in series [2] is recorded as “hardly acts or does not act at all”.
